Laboratory results from patent US9920040B2, “GPR40 agonists for the treatment of type II diabetes” (Janssen Pharmaceutica NV, priority 2015, dated 2018).
Values joined by “and” are separate entries in the source; they are usually repeats but may differ in a detail not shown here. Equal entries are not always repeated.

Experiments:
human GPR40 = target: T1, human GPR40 (Homo sapiens, UniProt O14842); experiment: GPR40 calcium flux assay, human GPR40; format: cell-based; conditions: transfected HEK293 cells stably expressing human GPR40; multiple values = repeated testing; read-out: hGPR40 Ca^2+ Assay EC50
T1 construct: expressed in transfected cells
T1 sequence (O14842 whole entry): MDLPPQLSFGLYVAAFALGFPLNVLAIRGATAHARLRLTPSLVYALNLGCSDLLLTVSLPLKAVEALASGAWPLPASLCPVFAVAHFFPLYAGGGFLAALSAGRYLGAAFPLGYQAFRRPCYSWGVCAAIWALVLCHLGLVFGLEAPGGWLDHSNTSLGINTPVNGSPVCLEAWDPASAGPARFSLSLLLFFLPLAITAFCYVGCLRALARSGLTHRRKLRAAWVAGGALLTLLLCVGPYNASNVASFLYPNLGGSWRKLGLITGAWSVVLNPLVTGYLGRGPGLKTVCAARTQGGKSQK
Description: (§1) Compounds were tested in a calcium flux assay using transfected HEK293 cells stably expressing either human GPR40 or rat GPR40. Human GPR40 expressing cells were cultured in DMEM-High Glucose media supplemented with 10% fetal bovine serum, 1×L-Glutamine, 1×Penicillin/Streptomycin and 500 μg/mL G418. Rat GPR40 expressing cells were cultured in DMEM-High Glucose media supplemented with 10% fetal bovine serum and 1 μg/mL puromycin. Cells were plated into poly-D-lysine coated 384-well plates and cultured overnight in a 37° C. humidified tissue culture incubator under 5% CO2/[…] atmosphere. On the day of the experiment, the culture media was replaced with assay buffer (HBSS, 20 mM HEPES, 0.1% BSA) and the cells incubated at 37° C. for 1 h. Calcium-sensitive fluorescent dye (Fluo 8 No-Wash Calcium Dye, ABD Bioquest) was then added and the cells incubated for another 30 min at 37° C. followed by 15 min at room temperature while protected from the light. The cell plate and a plate of diluted compounds of Formula (I) were loaded into a fluorescent plate reader that added compounds onto the cells while measuring the fluorescence intensity of each well. The plate reader recorded fluorescence intensity at 1 second intervals for 8 min and provided the data for analysis in an Excel format. EC50 values were calculated using Prism (GraphPad) software.

rat GPR40 = target: T2, rat GPR40 (Rattus norvegicus, UniProt Q8K3T4); experiment: GPR40 calcium flux assay, rat GPR40; format: cell-based; conditions: transfected HEK293 cells stably expressing rat GPR40; multiple values = repeated testing; read-out: rGPR40 Ca^2+ Assay EC50
T2 construct: expressed in transfected cells
T2 sequence (Q8K3T4 whole entry): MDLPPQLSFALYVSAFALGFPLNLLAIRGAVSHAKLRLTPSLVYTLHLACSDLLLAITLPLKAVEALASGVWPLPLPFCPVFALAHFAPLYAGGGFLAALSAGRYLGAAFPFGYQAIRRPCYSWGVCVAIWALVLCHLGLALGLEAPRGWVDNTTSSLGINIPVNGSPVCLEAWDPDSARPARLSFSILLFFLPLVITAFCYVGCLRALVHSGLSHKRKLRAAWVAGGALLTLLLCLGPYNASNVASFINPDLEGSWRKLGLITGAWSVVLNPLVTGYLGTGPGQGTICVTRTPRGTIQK
Description: as §1

Row | SMILES | EC50 (human GPR40) | EC50 (rat GPR40)
1 | COc1ccc(F)c(-c2onc(COc3cccc([C@@H](CC(=O)O)C4CC4)c3)c2OC2CC(C)(C)C(C)(C)C2)c1 [Cpd 1, (3S)-3-cyclopropyl-3-[3-[[5-(2-fluoro-5-methoxy-phenyl)-4-(3,3,4,4-tetramethylcyclopentoxy)isoxazol-3-yl]methoxy]phenyl]propanoic acid] | 3 nM | 6 nM
2 | COc1cc(-c2onc(COc3cccc([C@@H](CC(=O)O)C4CC4)c3)c2OC2CC(C)(C)CC(C)(C)C2)c(F)cn1 [Cpd 2, (3S)-3-cyclopropyl-3-[3-[[5-(5-fluoro-2-methoxy-4-pyridyl)-4-(3,3,5,5-tetramethylcyclohexoxy)isoxazol-3-yl]methoxy]phenyl]propanoic acid] | 5 nM | 9 nM
3 | COc1cc(-c2onc(COc3cccc([C@@H](CC(=O)O)C4CC4)c3)c2OC2CC(C)(C)C(C)(C)C2)c(F)cn1 [Cpd 4, (3S)-3-cyclopropyl-3-[3-[[5-(5-fluoro-2-methoxy-4-pyridyl)-4-(3,3,4,4-tetramethylcyclopentoxy)isoxazol-3-yl]methoxy]phenyl]propanoic acid] | 5 nM | 10 nM
4 | COc1ccc(F)c(-c2onc(COc3cc(C(CC(=O)O)C4CC4)c(Cl)cn3)c2C2=CCCC2(C)C)c1 (stereo not drawn) [Cpd 9, 3-[5-chloro-2-[[4-(5,5-dimethylcyclopenten-1-yl)-5-(2-fluoro-5-methoxy-phenyl)isoxazol-3-yl]methoxy]-4-pyridyl]-3-cyclopropyl-propanoic acid] | 53 nM | 138 nM
5 | COc1cc(-c2scc(COc3cccc([C@@H](CC(=O)O)C4CC4)c3)c2C2=CCCC2(C)C)c2ccsc2c1 [Cpd 10, (3S)-3-cyclopropyl-3-[3-[[4-(5,5-dimethylcyclopenten-1-yl)-5-(6-methoxybenzothiophen-4-yl)-3-thienyl]methoxy]phenyl]propanoic acid] | 53 nM and 35 nM and 34 nM | 91 nM and 89 nM
6 | COc1ccc(F)c(-c2onc(COc3cccc([C@@H](CC(=O)O)C4CC4)c3)c2OC2CCC2)c1 [Cpd 43, (3S)-3-[3-[[4-(cyclobutoxy)-5-(2-fluoro-5-methoxy-phenyl)isoxazol-3-yl]methoxy]phenyl]-3-cyclopropyl-propanoic acid] | 11 nM and 9 nM | 
7 | COc1cc(-c2onc(COc3cccc([C@@H](CC(=O)O)C4CC4)c3)c2OCC(C)C)c(F)cn1 [Cpd 47, (3S)-3-cyclopropyl-3-[3-[[5-(5-fluoro-2-methoxy-4-pyridyl)-4-isobutoxy-isoxazol-3-yl]methoxy]phenyl]propanoic acid] | 20 nM and 16 nM | 
8 | COc1cc(-c2onc(COc3cccc([C@@H](CC(=O)O)C4CC4)c3)c2OC2CCCCC2)c(F)cn1 [Cpd 48, (3S)-3-[3-[[4-(cyclohexoxy)-5-(5-fluoro-2-methoxy-4-pyridyl)isoxazol-3-yl]methoxy]phenyl]-3-cyclopropyl-propanoic acid] | 24 nM and 21 nM | 

Other lines, results leading:

Row | EC50 (human GPR40) | EC50 (rat GPR40) | SMILES
9 | 37 nM and 35 nM and 6 nM | 69 nM and 46 nM and 56 nM | COc1ccc(F)c(-c2onc(COc3cccc([C@@H](CC(=O)O)C4CC4)c3)c2OCC2CC(C)(C)C2)c1 [Cpd 5, (3S)-3-cyclopropyl-3-[3-[[4-[(3,3-dimethylcyclobutyl)methoxy]-5-(2-fluoro-5-methoxy-phenyl)isoxazol-3-yl]methoxy]phenyl]propanoic acid]
10 | 24 nM | 69 nM | COc1ccc(F)c(-c2onc(CCc3cccc(C(CC(=O)O)C4CC4)c3)c2C2CC2)c1 (stereo not drawn) [Cpd 7, 3-cyclopropyl-3-[3-[2-[4-cyclopropyl-5-(2-fluoro-5-methoxy-phenyl)isoxazol-3-yl]ethyl]phenyl]propanoic acid]
11 | 113 nM and 103 nM and 27 nM | 44 nM and 144 nM and 143 nM | COc1cc(-c2onc(COc3cccc([C@@H](CC(=O)O)C4CC4)c3)c2OCC2CC(C)(C)C2)c(F)cn1 [Cpd 8, (3S)-3-cyclopropyl-3-[3-[[4-[(3,3-dimethylcyclobutyl)methoxy]-5-(5-fluoro-2-methoxy-4-pyridyl)isoxazol-3-yl]methoxy]phenyl]propanoic acid]
12 | 14 nM and 12 nM |  | COc1ccc(F)c(-c2onc(COc3cccc([C@@H](CC(=O)O)C4CC4)c3)c2OCC2CC2)c1 [Cpd 41, (3S)-3-cyclopropyl-3-[3-[[4-(cyclopropylmethoxy)-5-(2-fluoro-5-methoxy-phenyl)isoxazol-3-yl]methoxy]phenyl]propanoic acid]
13 | 19 nM and 15 nM |  | COc1ccc(F)c(-c2onc(COc3cccc([C@@H](CC(=O)O)C4CC4)c3)c2OC(C)C)c1 [Cpd 42, (3S)-3-cyclopropyl-3-[3-[[5-(2-fluoro-5-methoxy-phenyl)-4-isopropoxy-isoxazol-3-yl]methoxy]phenyl]propanoic acid]
14 | 23 nM and 21 nM |  | COc1ccc(F)c(-c2onc(COc3cccc([C@@H](CC(=O)O)C4CC4)c3)c2-c2ccc(C(C)(C)C)s2)c1 [Cpd 45, (3S)-3-[3-[[4-(5-tert-butyl-2-thienyl)-5-(2-fluoro-5-methoxy-phenyl)isoxazol-3-yl]methoxy]phenyl]-3-cyclopropyl-propanoic acid]
15 | 7 nM and 5 nM |  | COc1ccc(F)c(-c2onc(COc3cccc([C@@H](CC(=O)O)C4CC4)c3)c2OC2CCCCC2)c1 [Cpd 46, (3S)-3-[3-[[4-(cyclohexoxy)-5-(2-fluoro-5-methoxy-phenyl)isoxazol-3-yl]methoxy]phenyl]-3-cyclopropyl-propanoic acid]
16 | 67 nM and 56 nM |  | COc1ccc(F)c(-c2onc(COc3cccc([C@@H](CC(=O)O)C4CC4)c3)c2OCCC(F)(F)F)c1 [Cpd 49, (3S)-3-cyclopropyl-3-[3-[[5-(2-fluoro-5-methoxy-phenyl)-4-(3,3,3-trifluoropropoxy)isoxazol-3-yl]methoxy]phenyl]propanoic acid]
17 | 110 nM and 81 nM |  | CCOc1c(COc2cccc([C@@H](CC(=O)O)C3CC3)c2)noc1-c1cc(OC)ccc1F [Cpd 50, (3S)-3-cyclopropyl-3-[3-[[4-ethoxy-5-(2-fluoro-5-methoxy-phenyl)isoxazol-3-yl]methoxy]phenyl]propanoic acid]
18 | 180 nM and 140 nM |  | CCOc1c(COc2cccc([C@@H](CC(=O)O)C3CC3)c2)noc1-c1cc(OC)ncc1F [Cpd 51, (3S)-3-cyclopropyl-3-[3-[[4-ethoxy-5-(5-fluoro-2-methoxy-4-pyridyl)isoxazol-3-yl]methoxy]phenyl]propanoic acid]
19 | 51 nM and 45 nM |  | COc1cc(-c2onc(COc3cccc([C@@H](CC(=O)O)C4CC4)c3)c2C=C(C)C)c(F)cn1 [Cpd 52, (3S)-3-cyclopropyl-3-[3-[[5-(5-fluoro-2-methoxy-4-pyridyl)-4-(2-methylprop-1-enyl)isoxazol-3-yl]methoxy]phenyl]propanoic acid]
